The record followed here is US6432682B1, “Substances KF-1040 and process for producing of the same” (The Kitasato Institute, priority 2000, dated 2002).

Each structure is given as a SMILES string. Values after ≈ are worked out from the molar mass of the structure shown.

The nature of data set [1]: Solubility in solvents. It counts as physicochemical. The settings on record: in methanol, benzene, chloroform and ethyl acetate.
Data set [2] has as its system triacylglycerol formation in Raji cell originated from human Burkitt lymphoma. The data set can be described thus: Inhibitory action to formation of triacylglycerol in human-originated cells (Raji cell). It counts as cell-based. Conditions: 0.5 h, [1-14C]-oleic acid, 37° C., 30 minutes, read-out: drug concentration corresponding to 50% inhibition of triacylglycerol formation. As for the experimental part: The assessment of influence of the substances on the triacylglycerol formation was performed in accordance with the method of Tomoda et al [J. Biol. Chem., 266, 4214-4219 (1991)] using human-originated cells (Raji cell originated from human Burkitt lymphoma).
A Raji cell dispersion of 2.7×10^6 cells per milliliter containing 0.36 nM [1-^14C]-oleic acid (0.02 μCi) in the presence or absence of the; substance was filled up to a total volume 200 μl, whereupon the reaction was caused at 37° C. for 30 minutes. The total lipids were extracted with chloroform/methanol (2/1) mixture. The subsequent procedures were carried out in the same manner as in the above experiment (1) “inhibitive action to rat-originated diacylglycerol-acyltransferase”.
The calculation of the drug concentration corresponding to 50% inhibition of triacylglycerol formation gives the values of 10 μg/ml for the KF-1040 substance A and 10 μg/ml for the KF-1040 substance B.

Data set [3] has as its target T1, acid sphingomyelinase originated from human placenta (Homo sapiens, UniProt P17405).
T1 construct: an acid sphingomyelinase originated from human placenta (a product of the firm Sigma) was used as the enzyme source; purchased Sigma; host or cells: human placenta
T1 sequence (P17405 47-631): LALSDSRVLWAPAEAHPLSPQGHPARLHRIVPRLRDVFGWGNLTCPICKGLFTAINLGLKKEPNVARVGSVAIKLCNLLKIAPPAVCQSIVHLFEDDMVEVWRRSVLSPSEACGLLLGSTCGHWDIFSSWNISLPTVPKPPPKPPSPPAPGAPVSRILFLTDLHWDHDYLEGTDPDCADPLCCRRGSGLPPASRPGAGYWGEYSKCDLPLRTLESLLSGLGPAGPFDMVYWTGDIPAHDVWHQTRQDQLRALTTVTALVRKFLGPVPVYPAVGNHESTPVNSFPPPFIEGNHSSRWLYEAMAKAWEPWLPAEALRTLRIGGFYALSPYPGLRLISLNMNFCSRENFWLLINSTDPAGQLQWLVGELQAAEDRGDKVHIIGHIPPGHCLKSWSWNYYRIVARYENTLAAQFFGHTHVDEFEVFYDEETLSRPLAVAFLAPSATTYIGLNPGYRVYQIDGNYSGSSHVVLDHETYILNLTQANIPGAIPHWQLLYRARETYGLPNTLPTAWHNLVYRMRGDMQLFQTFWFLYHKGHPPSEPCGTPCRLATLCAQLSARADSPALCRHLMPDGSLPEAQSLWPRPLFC
Description: Influence on human placenta-originated acid sphingomyelinase. Format: biochemical. The settings on record: human placenta enzyme (Sigma), pH 5.0, 37° C., 30 minutes; read-out: concentration corresponding to 50% inhibition of acid sphingomyelinase (converted). As for the experimental part: The assessment of influence of the substances on human placenta-originated acidic sphingomyelinase was performed in accordance with the method of Jones et al [Biochem. Journal, 195, 373-382 (1981)] with partial modification.
Thus, an acid sphingomyelinase originated from human placenta (a product of the firm Sigma) was used as the enzyme source and thereto were added 250 mM of sodium acetate buffer solution (pH 5.0), 0.1% of NP-40 (of the firm Sigma), 25 μM [N-methyl-^3H]-sphingomyelin (0.006 μCi) and various concentrations of the substance, and the mixture was filled up to a total volume of 50 μl. After the reaction at 37° C. for 30 minutes, 200 μl of chloroform/methanol mixture (1/2 volume ratio) was added to the reaction mixture to separate the reaction product [^3H]-phosphocholine from the starting material [^3H]-sphingomyelin. The supernatant layer was taken up into a 50 μl vial. The amount of [^3H]-phosphocholine was quantitatively determined by a liquid scintillation counter to estimate the acid sphingomyelinase activity.

Data set [4] addresses diacylglycerol:acyltransferase. Description: Inhibitory action to rat-originated diacylglycerol:acyltransferase (rat liver microsomal fraction). It counts as biochemical. The settings on record: 23° C., 15 minutes. Here is the method: The activity of diacylglycerol:acyltransferase was determined by the modified method of Mayorek and Bar-Tana [J. Biol. Chem., 260, 6528-6532 (1985)].
Thus, a microsomal fraction prepared from rat liver was used as the enzyme source. To a 175 mM Tris-HCl buffer (pH 8.0) containing 8 mM of MgCl2, 1 mg/ml of bovine, serum albumin and 2.5 mM of diisopropyl fluorophosphate, there were added 0.75 mM of dioleoylglycerol and 30 μM of [1-^14C]-palmitoyl-CoA (0.02 μCi) and the total volume was adjusted to 200 μl, whereupon the enzymatic reaction mixture was incubated at 23° C. for 15 minutes. The total lipids were extracted with chloroform/methanol mixture and each lipid was separated by a TLC (with Kieselgel GF254 and a developer of petroleum ether/diethyl ether/acetic acid of 80/20/1), followed by determination of the radioactivity of the triacylglycerol fraction using RADIOSCANNER (of the firm AMBIS System Inc.) to determine the diacylglycerol:acyltransferase activity.
For orientation: Liver microsomes are a subcellular fraction often used to study metabolism.

The nature of data set [5]: Acidic or alkaline nature. It counts as physicochemical.

For `CCC(C)CC(C)CC(C)C(OC1OC(CO)C(O)C(O)C1O)C(C)C=C(C)C(O)C(C)C=C(C)C(O)C(C)C=C(C)C(=O)OCC(O)C(O)C(O)CO` (stereo not shown) [KF-1040 substance A], in data set [1], the Solubility in solvents result is “solule in methanol, benzene, chloroform”. Moreover, the IC50 in data set [2] was 10 µg/mL (≈ 12.9 µM); in data set [3], 61.8 µM. For the same compound, in data set [4], the “drug concentration corresponding to 50% inhibition of diacylglycerol:acyltransferase” value was 16 µg/mL. For the same compound, in data set [5], the “Acidic or alkaline nature” value is recorded as “neutral”.
Take `CCC(C)CC(C)CC(C)C(OC1OC(COC(C)=O)C(O)C(O)C1O)C(C)C=C(C)C(O)C(C)C=C(C)C(O)C(C)C=C(C)C(=O)OCC(O)C(O)C(O)CO` (stereo not shown) [KF-1040 substance B]: the Solubility in solvents result in data set [1] is on record as “soluble in methanol, benzene, chloroform”. In addition, the figures for the IC50 in data set [2] and in data set [3] were 10 µg/mL (≈ 12.2 µM) and 29.3 µM, respectively. Moreover, in data set [4], the “drug concentration corresponding to 50% inhibition of diacylglycerol:acyltransferase” value was 9.0 µg/mL. Besides, in data set [5], the “Acidic or alkaline nature” value was “neutral”.
